# Measurements from patent publication US12071469B2, “Peptide compounds for suppressing inflammation” (Duke University, priority 2011, dated 2024).
# Experiments:
# [1] = tested on: mice with middle cerebral artery occlusion (focal ischemia-reperfusion); assay: Rotorod vestibulomotor function after modified middle cerebral artery occlusion (MCAO); type: in vivo, mouse
# Text: A modified middle cerebral artery occlusion (MCAO) model (Huang et al., (1994) Science, 265:1883-1885; Laskowitz et al., (1997) J. Cereb. Blood Flow Metab., 17:753-758) was used to determine the effect of the mimetic peptides on neurological function after stroke and to evaluate the peptide's efficacy as a therapeutic agent for stroke. The mice were endotracheally intubated after anesthesia induction with 4.6% isoflurane, and the lungs were mechanically ventilated with 1.6% isoflurane in 30% O2/70% N2. Via a midline cervical skin incision, the right common carotid artery was identified. The external carotid artery was ligated and transected. The internal carotid artery was dissected distally until the origin of the pterygopalatine artery was visualized. A 6-0 nylon monofilament with blunted tip lightly coated with silicone was inserted into the proximal external carotid artery stump and advanced 11 mm into the internal carotid artery to occlude the middle cerebral artery. After 90 min, the filament was removed to restore blood perfusion, and the skin incision closed with suture. Isoflurane was discontinued and the mice were extubated upon the recovery of spontaneous respiration. Post-injury mice were placed in an oxygen-enriched environment (FIO2=50%) for 1 hr and then returned to their cages. Rectal temperature was continuously monitored and servoregulated with surface heating/cooling at 37° C. throughout the procedure.
# Two groups of 10-12 week old male C57Bl/6J mice, a control group (n=12) and a VR-55-treated group (n=9), received MCAO. […]
# An automated Rotorod (Ugo Basile, Comerio, Italy) was used to assess vestibulomotor function, as previously described above. […] The average time to fall from the rotating cylinder in the latter 3 trials was recorded as baseline functional Rotorod latency. […] The average latency to fall from the rod was recorded. […]
# [2] = tested on: mice with traumatic brain injury; assay: Morris water maze neurocognitive performance after traumatic brain injury; type: in vivo, mouse; settings: 0.05 mg/kg or 0.2 mg/kg iv at 2 h and 6 h after traumatic brain injury; days 28-31 post-injury; FIG. 4
# Method: An experimental murine model for traumatic brain injury was developed. Laskowitz, et al. (2010) J. Neurotrauma, 27:1983-95. Male mice (age 12-14 weeks) were anesthetized with 4.3% isoflurane in oxygen in an anesthesia induction box for 90 seconds. The trachea was intubated and the lungs mechanically ventilated with 1.4% isoflurane in a 50/50 mixture of oxygen and nitrogen. Body temperature was maintained at 37° C. using surface heating/cooling. The top of the skull was exposed by a midline incision to identify anatomical landmarks, and a concave 3-mm metallic disc was secured to the skull surface with an adhesive, directly midline and just caudal to the bregma. […]
# Another experimental procedure for measuring neurological deficits was developed using a Morris water maze. […] Latency to finding the platform and swimming speed were recorded using a computerized video tracking system (Ethovision 2.2.14; available from Noldus Information Technology, Leesburg VA).
# Groups of mice received either an ApoE mimetic peptide (SEQ ID NO:4; 0.05 mg/kg) or carrier (saline) by intravenous tail vein injection at 2 hours and again at 6 hours after traumatic brain injury induced as described in Example 3. Each mouse was tested for vestibulomotor function by rotorod latency measured before and after injury, as described in Example 3. […]
substance,measurement,setting,value
"Ac-VSRRR-NH2 [VR-55, Ac-VSRRR-NH2]",functional Rotorod latency compared to control mice,"[1]; Day 3 post-injury, 0.05 mg/kg iv at 30 min and 6 hrs after reperfusion",improvement in functional Rotorod latency
same,functional Rotorod latency,"[1]; Day 3 post-injury, 0.05 mg/kg iv at 30 min and 6 hrs after reperfusion, control mice 161+/−32 sec",216 ± 26 s
same,baseline functional Rotorod latency,"[1]; day before MCAO, control mice 217+/−20 sec",214 ± 22 s
same,neurocognitive outcomes (Morris water maze latency),[2],improved neurocognitive outcomes
